Reference: patent publication US6936632B2, “Fused pyrrole compounds, pharmaceutical agents containing the same, and the use thereof” (Merckle GmbH, priority 2000, dated 2005)

SMILES | melting point
NS(=O)(=O)c1ccc(-c2cc3n(c2-c2ccc(F)cc2)CCC3)cc1 | 206.9 °C
Cc1c(C(F)(C(F)(F)F)C(F)(F)F)c(-c2ccc(S(N)(=O)=O)cc2)c2n1CCC2 | 199.6 °C
CS(=O)(=O)c1ccc(-c2c(-c3ccc(F)cc3)cn3c2CCC3)cc1 | 191 °C
